How the values were obtained:
Assay type in all cases: functional
IGROV-1 [1] = assay: Growth inhibition of human IGROV1 cells assessed as cell growth at 5X10'-7 M after 48 hrs by sulforhodamine B assay; details: IGROV-1, 48 h, read-out: Activity
UACC-62 = assay: Growth inhibition of human UACC62 cells assessed as cell growth at 5X10'-7 M after 48 hrs by sulforhodamine B assay; details: UACC-62, 48 h, read-out: Activity
SR [2] = assay: Growth inhibition of human SR cells assessed as cell growth at 5X10'-6 M after 48 hrs by sulforhodamine B assay; details: read-out: Activity
KM12 [3] = assay: Growth inhibition of human KM12 cells assessed as cell growth at 5X10'-7 M after 48 hrs by sulforhodamine B assay; details: KM12, 48 h, read-out: Activity
NCI-H226 = assay: Growth inhibition of human NCI-H226 cells assessed as cell growth at 5X10'-8 M after 48 hrs by sulforhodamine B assay; details: NCI-H226, 48 h, read-out: Activity
Malme-3M [4] = assay: Growth inhibition of human MALME-3M cells assessed as cell growth at 5X10'-7 M after 48 hrs by sulforhodamine B assay; details: read-out: Activity
Malme-3M [5] = assay: Growth inhibition of human MALME-3M cells assessed as cell growth at 5X10'-6 M after 48 hrs by sulforhodamine B assay; details: read-out: Activity
A498 = assay: Growth inhibition of human A498 cells assessed as cell growth at 5X10'-9 M after 48 hrs by sulforhodamine B assay; details: A498, 48 h, read-out: Activity
MDA-MB-468 = assay: Growth inhibition of human MDA-MB-468 cells assessed as cell growth at 5X10'-7 M after 48 hrs by sulforhodamine B assay; details: MDA-MB-468, 48 h, read-out: Activity
SW-620 = assay: Growth inhibition of human SW620 cells assessed as cell growth at 5X10'-5 M after 48 hrs by sulforhodamine B assay; details: SW-620, 48 h, read-out: Activity
SF-268 = assay: Growth inhibition of human SF268 cells assessed as cell growth at 5X10'-9 M after 48 hrs by sulforhodamine B assay; details: SF-268, 48 h, read-out: Activity
SK-MEL-5 = assay: Growth inhibition of human SK-MEL-5 cells assessed as cell growth at 5X10'-5 M after 48 hrs by sulforhodamine B assay; details: SK-MEL-5, 48 h, read-out: Activity
SN12C = assay: Growth inhibition of human SN12C cells assessed as cell growth at 5X10'-7 M after 48 hrs by sulforhodamine B assay; details: read-out: Activity
COLO 205 = assay: Growth inhibition of human COLO205 cells assessed as cell growth at 5X10'-7 M after 48 hrs by sulforhodamine B assay; details: COLO 205, 48 h, read-out: Activity
[6] = Growth inhibition of human Hs 578T cells assessed as cell growth at 5X10'-8 M after 48 hrs by sulforhodamine B assay; details: read-out: Activity
OVCAR-3 = assay: Growth inhibition of human OVCAR3 cells assessed as cell growth at 5X10'-8 M after 48 hrs by sulforhodamine B assay; details: OVCAR-3, 48 h, read-out: Activity
[7] = Growth inhibition of human NCI-ADR-RES cells assessed as cell growth at 5X10'-5 M after 48 hrs by sulforhodamine B assay; details: read-out: Activity
[8] = Growth inhibition of human HCC2998 cells assessed as cell growth at 5X10'-5 M after 48 hrs by sulforhodamine B assay; details: HCC 2998, 48 h, read-out: Activity
MDA-MB-435 = assay: Growth inhibition of human MDA-MB-435 cells assessed as cell growth at 5X10'-9 M after 48 hrs by sulforhodamine B assay; details: MDA-MB-435, 48 h, read-out: Activity
HT-29 = assay: Growth inhibition of human HT-29 cells assessed as cell growth at 5X10'-7 M after 48 hrs by sulforhodamine B assay; details: HT-29, 48 h, read-out: Activity
KM12 [9] = assay: Growth inhibition of human KM12 cells assessed as cell growth at 5X10'-5 M after 48 hrs by sulforhodamine B assay; details: KM12, 48 h, read-out: Activity
IGROV-1 [10] = assay: Growth inhibition of human IGROV1 cells assessed as cell growth at 5X10'-5 M after 48 hrs by sulforhodamine B assay; details: IGROV-1, 48 h, read-out: Activity
MDA-MB-231 = assay: Growth inhibition of human MDA-MB-231 cells assessed as cell growth at 5X10'-7 M after 48 hrs by sulforhodamine B assay; details: MDA-MB-231, 48 h, read-out: Activity
HOP-62 = assay: Growth inhibition of human HOP62 cells assessed as cell growth at 5X10'-8 M after 48 hrs by sulforhodamine B assay; details: HOP-62, 48 h, read-out: Activity
SK-MEL-2 = assay: Growth inhibition of human SK-MEL-2 cells assessed as cell growth at 5X10'-7 M after 48 hrs by sulforhodamine B assay; details: SK-MEL-2, 48 h, read-out: Activity
HCT-116 = assay: Growth inhibition of human HCT116 cells assessed as cell growth at 5X10'-9 M after 48 hrs by sulforhodamine B assay; details: HCT-116, 48 h, read-out: Activity
SK-MEL-28 = assay: Growth inhibition of human SK-MEL-28 cells assessed as cell growth at 5X10'-8 M after 48 hrs by sulforhodamine B assay; details: SK-MEL-28, 48 h, read-out: Activity
HCT-15 [11] = assay: Growth inhibition of human HCT15 cells assessed as cell growth at 5X10'-9 M after 48 hrs by sulforhodamine B assay; details: HCT-15, 48 h, read-out: Activity
SK-OV-3 = assay: Growth inhibition of human SKOV3 cells assessed as cell growth at 5X10'-5 M after 48 hrs by sulforhodamine B assay; details: SK-OV-3, 48 h, read-out: Activity
HCT-15 [12] = assay: Growth inhibition of human HCT15 cells assessed as cell growth at 5X10'-8 M after 48 hrs by sulforhodamine B assay; details: HCT-15, 48 h, read-out: Activity
SR [13] = assay: Growth inhibition of human SR cells assessed as cell growth at 5X10'-8 M after 48 hrs by sulforhodamine B assay; details: read-out: Activity
CCRF-CEM [14] = assay: Growth inhibition of human CCRF-CEM cells assessed as cell growth at 5X10'-8 M after 48 hrs by sulforhodamine B assay; details: read-out: Activity
Malme-3M [15] = assay: Growth inhibition of human MALME-3M cells assessed as cell growth at 5X10'-8 M after 48 hrs by sulforhodamine B assay; details: read-out: Activity
CCRF-CEM [16] = assay: Growth inhibition of human CCRF-CEM cells assessed as cell growth at 5X10'-7 M after 48 hrs by sulforhodamine B assay; details: read-out: Activity
SNB-75 = assay: Growth inhibition of human SNB75 cells assessed as cell growth at 5X10'-5 M after 48 hrs by sulforhodamine B assay; details: SNB-75, 48 h, read-out: Activity
RXF 393 = assay: Growth inhibition of human RXF393 cells assessed as cell growth at 5X10'-8 M after 48 hrs by sulforhodamine B assay; details: RXF 393, 48 h, read-out: Activity
NCI-H322M = assay: Growth inhibition of human NCI-H322M cells assessed as cell growth at 5X10'-9 M after 48 hrs by sulforhodamine B assay; details: read-out: Activity

SMILES: COc1cc(-c2nn(-c3cccc(NC(=O)Nc4cc(C(F)(F)F)cc(C(F)(F)F)c4)c3)cc2-c2ccncc2)ccc1Cl
- growth at 0.5 µM (IGROV-1 [1]): 76%
- growth at 0.5 µM (UACC-62): 66%
- growth at 5 µM (SR [2]): -9%
- growth at 0.5 µM (KM12 [3]): 53%
- growth at 0.05 µM (NCI-H226): 90%
- growth at 0.5 µM (Malme-3M [4]): 83%
- growth at 5 µM (Malme-3M [5]): -47%
- growth at 0.005 µM (A498): 90%
- growth at 0.5 µM (MDA-MB-468): 41%
- growth at 50 µM (SW-620): -65%
- growth at 0.005 µM (SF-268): 100%
- growth at 50 µM (SK-MEL-5): -93%
- growth at 0.5 µM (SN12C): 75%
- growth at 0.5 µM (COLO 205): 93%
- growth at 0.05 µM [6]: 93%
- growth at 0.05 µM (OVCAR-3): 109%
- growth at 50 µM [7]: -16%
- growth at 50 µM [8]: -88%
- growth at 0.005 µM (MDA-MB-435): 98%
- growth at 0.5 µM (HT-29): 70%
- growth at 50 µM (KM12 [9]): -68%
- growth at 50 µM (IGROV-1 [10]): -54%
- growth at 0.5 µM (MDA-MB-231): 69%
- growth at 0.05 µM (HOP-62): 95%
- growth at 0.5 µM (SK-MEL-2): 105%
- growth at 0.005 µM (HCT-116): 101%
- growth at 0.05 µM (SK-MEL-28): 97%
- growth at 0.005 µM (HCT-15 [11]): 97%
- growth at 50 µM (SK-OV-3): -62%
- growth at 0.05 µM (HCT-15 [12]): 97%
- growth at 0.05 µM (SR [13]): 103%
- growth at 0.05 µM (CCRF-CEM [14]): 94%
- growth at 0.05 µM (Malme-3M [15]): 104%
- growth at 0.5 µM (CCRF-CEM [16]): 50%
- growth at 50 µM (SNB-75): -62%
- growth at 0.05 µM (RXF 393): 92%
- growth at 0.005 µM (NCI-H322M): 97%

Source: ChEMBL document CHEMBL2440076, “New triarylpyrazoles as broad-spectrum anticancer agents: design, synthesis, and biological evaluation” (Eur J Med Chem, 2013)
